{"source": "patent US9956187B2", "about": "(priority 2014, dated 2018)", "key": {"[1]": {"biological_target": "T1, norepinephrine transporter (NET) (Homo sapiens, UniProt P23975)", "T1 construct": "expressed in transfected cells", "T1 sequence (P23975 whole entry)": "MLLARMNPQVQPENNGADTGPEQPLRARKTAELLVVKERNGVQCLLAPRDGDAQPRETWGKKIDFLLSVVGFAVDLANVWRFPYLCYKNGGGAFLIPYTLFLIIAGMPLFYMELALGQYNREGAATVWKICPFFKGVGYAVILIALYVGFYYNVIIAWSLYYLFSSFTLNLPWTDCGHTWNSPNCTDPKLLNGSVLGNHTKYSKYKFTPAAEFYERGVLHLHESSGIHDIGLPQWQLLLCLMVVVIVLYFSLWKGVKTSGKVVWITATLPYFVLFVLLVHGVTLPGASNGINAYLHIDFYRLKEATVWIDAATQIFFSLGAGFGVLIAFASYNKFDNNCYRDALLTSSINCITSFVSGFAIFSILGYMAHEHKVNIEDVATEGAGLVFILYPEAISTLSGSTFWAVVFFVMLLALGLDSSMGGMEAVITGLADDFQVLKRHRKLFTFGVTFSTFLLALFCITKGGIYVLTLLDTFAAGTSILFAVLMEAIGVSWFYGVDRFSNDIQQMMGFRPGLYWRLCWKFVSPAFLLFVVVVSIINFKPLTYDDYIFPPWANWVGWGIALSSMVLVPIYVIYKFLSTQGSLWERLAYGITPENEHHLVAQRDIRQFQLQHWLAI", "test": "Secondary radioligand binding assay (affinity)", "conditions": "FIG. 10A", "description": "The secondary binding assay was performed only when the inhibition in the primary screen was over 50%. A secondary binding assay was utilized to determine the binding affinity for the identified receptor.\n50 μL of a crude membrane fraction of cells expressing the respective receptors were applied to each well. Reaction incubation, harvesting and radioactivity measurement from the primary assay were repeated. Affinity is expressed as pKi (−log Ki)."}, "Sigma 1": {"biological_target": "Sigma 1 (Homo sapiens, UniProt Q99720)", "sequence (Q99720 whole entry)": "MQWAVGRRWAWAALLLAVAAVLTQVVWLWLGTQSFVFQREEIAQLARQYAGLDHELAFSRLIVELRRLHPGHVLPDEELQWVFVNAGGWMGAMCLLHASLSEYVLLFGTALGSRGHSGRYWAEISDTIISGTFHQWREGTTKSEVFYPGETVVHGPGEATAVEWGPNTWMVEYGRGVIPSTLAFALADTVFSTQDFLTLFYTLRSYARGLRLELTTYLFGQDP", "test": "Primary radioligand binding screen", "design": "expressed in transfected cells", "conditions": "primary binding, Sigma 1; dezocine 10 μM", "description": "(§1) Evidence for interaction was based on the inhibition of the reference ligand-binding signal. […] Briefly, 50 μL aliquots of radioactive ligand (5 nM) were added to wells of a 96-well plate, which contained 25 μL of the reference or test ligands. We employed transfected cell lines expressing mainly human (unless otherwise specified) recombinant receptors, monoamine transporters, or ion channels for crude membrane preparation. Detailed information about our membrane preparation is well known in the art and can be obtained from publicly available protocol online. Crude membrane fractions containing the receptors were resuspended in standard binding buffer and 50 μL aliquots added to each well. The reactions were incubated at room temperature for 1.5 hours to allow for radioligand binding equilibration. Bound radioactivity was harvested by rapid filtration through a 0.3% polyethyleneimine-treated, 96-well filter mats using a 96-well Filtermate harvester. The dried filters were treated with melted scintillant and a Microbeta scintillation counter was utilized to measure the radioactivity retained on the filter."}, "5-HT1D": {"biological_target": "T2, 5-HT1D (Homo sapiens, UniProt P28221)", "T2 construct": "expressed in transfected cells", "test": "Primary radioligand binding screen", "conditions": "primary binding, 5-HT1D; dezocine 10 μM", "description": "as §1"}, "5-HT2B": {"biological_target": "T3, 5-HT2B (Homo sapiens, UniProt P41595)", "T3 construct": "expressed in transfected cells", "test": "Primary radioligand binding screen", "conditions": "primary binding, 5-HT2B; dezocine 10 μM", "description": "as §1"}, "Alpha2A": {"biological_target": "T4, Alpha2A (Homo sapiens, UniProt P08913)", "T4 construct": "expressed in transfected cells", "T4 sequence (P08913 whole entry)": "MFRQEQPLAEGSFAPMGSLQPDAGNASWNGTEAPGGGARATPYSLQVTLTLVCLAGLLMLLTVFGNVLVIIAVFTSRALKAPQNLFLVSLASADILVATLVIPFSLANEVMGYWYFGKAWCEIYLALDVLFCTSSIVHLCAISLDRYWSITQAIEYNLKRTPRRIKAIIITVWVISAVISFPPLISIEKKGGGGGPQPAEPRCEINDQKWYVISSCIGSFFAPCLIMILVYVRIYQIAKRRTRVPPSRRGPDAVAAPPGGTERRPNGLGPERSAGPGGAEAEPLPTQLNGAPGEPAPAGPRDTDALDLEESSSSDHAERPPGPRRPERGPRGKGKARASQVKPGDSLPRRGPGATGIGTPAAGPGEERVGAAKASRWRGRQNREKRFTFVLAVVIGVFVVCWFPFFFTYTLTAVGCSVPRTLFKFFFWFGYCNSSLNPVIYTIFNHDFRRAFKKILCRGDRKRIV", "test": "Primary radioligand binding screen", "conditions": "primary binding, Alpha2A; dezocine 10 μM", "description": "as §1"}, "5-HT3": {"biological_target": "T5, 5-HT3 (Homo sapiens, UniProt P46098)", "T5 construct": "expressed in transfected cells", "T5 sequence (P46098 24-478)": "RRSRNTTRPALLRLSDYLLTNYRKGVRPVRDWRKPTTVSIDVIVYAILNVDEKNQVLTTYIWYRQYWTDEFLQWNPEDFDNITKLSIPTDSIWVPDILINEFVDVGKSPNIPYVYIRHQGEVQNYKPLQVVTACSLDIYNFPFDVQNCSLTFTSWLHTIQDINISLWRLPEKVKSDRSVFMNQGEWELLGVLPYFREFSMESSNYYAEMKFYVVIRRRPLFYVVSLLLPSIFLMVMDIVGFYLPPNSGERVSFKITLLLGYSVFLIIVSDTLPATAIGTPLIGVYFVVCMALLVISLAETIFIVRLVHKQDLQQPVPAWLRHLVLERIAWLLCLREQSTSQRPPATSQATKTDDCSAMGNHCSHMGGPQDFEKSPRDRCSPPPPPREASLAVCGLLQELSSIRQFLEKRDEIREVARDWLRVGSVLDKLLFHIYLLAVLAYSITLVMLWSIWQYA", "test": "Primary radioligand binding screen", "conditions": "primary binding, 5-HT3; dezocine 10 μM", "description": "as §1"}, "NET": {"biological_target": "T6, NET (Homo sapiens, UniProt P23975)", "T6 construct": "expressed in transfected cells", "T6 sequence (P23975 whole entry)": "as the sequence (P23975 whole entry) above", "test": "Primary radioligand binding screen", "conditions": "primary binding, NET; dezocine 10 μM", "description": "as §1"}, "Alpha1B": {"biological_target": "T7, Alpha1B (Homo sapiens, UniProt P35368)", "T7 construct": "expressed in transfected cells", "T7 sequence (P35368 whole entry)": "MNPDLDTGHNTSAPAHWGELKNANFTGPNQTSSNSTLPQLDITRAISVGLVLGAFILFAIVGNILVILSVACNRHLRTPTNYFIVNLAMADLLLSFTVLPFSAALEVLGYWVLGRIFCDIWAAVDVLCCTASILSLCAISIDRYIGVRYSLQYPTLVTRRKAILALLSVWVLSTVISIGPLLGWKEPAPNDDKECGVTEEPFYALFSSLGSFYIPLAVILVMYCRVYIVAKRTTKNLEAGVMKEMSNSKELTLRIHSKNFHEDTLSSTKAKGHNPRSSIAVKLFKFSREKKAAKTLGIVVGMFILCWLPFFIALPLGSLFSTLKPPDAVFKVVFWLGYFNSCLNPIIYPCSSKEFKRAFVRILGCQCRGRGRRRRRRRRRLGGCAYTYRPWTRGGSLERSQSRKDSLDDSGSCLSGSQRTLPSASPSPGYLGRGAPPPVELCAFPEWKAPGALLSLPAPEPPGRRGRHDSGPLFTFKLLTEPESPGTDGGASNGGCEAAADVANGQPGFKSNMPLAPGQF", "test": "Primary radioligand binding screen", "conditions": "primary binding, Alpha1B; dezocine 10 μM", "description": "as §1"}, "Alpha1A": {"biological_target": "T8, Alpha1A (Homo sapiens, UniProt P35348)", "T8 construct": "expressed in transfected cells", "test": "Primary radioligand binding screen", "conditions": "primary binding, Alpha1A; dezocine 10 μM", "description": "as §1"}, "Alpha2C": {"biological_target": "T9, Alpha2C (Homo sapiens, UniProt P18825)", "T9 construct": "expressed in transfected cells", "test": "Primary radioligand binding screen", "conditions": "primary binding, Alpha2C; dezocine 10 μM", "description": "as §1"}, "D3": {"biological_target": "T10, D3 (Homo sapiens, UniProt P35462)", "T10 construct": "expressed in transfected cells", "test": "Primary radioligand binding screen", "conditions": "primary binding, D3; dezocine 10 μM", "description": "as §1"}, "5-HT2C": {"biological_target": "T11, 5-HT2C (Homo sapiens, UniProt P28335)", "T11 construct": "expressed in transfected cells", "test": "Primary radioligand binding screen", "conditions": "primary binding, 5-HT2C; dezocine 10 μM", "description": "as §1"}, "H2": {"biological_target": "T12, H2 (Homo sapiens, UniProt P25021)", "T12 construct": "expressed in transfected cells", "test": "Primary radioligand binding screen", "conditions": "primary binding, H2; dezocine 10 μM", "description": "as §1"}, "D5": {"biological_target": "T13, D5 (Homo sapiens, UniProt P21918)", "T13 construct": "expressed in transfected cells", "test": "Primary radioligand binding screen", "conditions": "primary binding, D5; dezocine 10 μM", "description": "as §1"}, "D4": {"biological_target": "T14, D4 (Homo sapiens, UniProt P21917)", "T14 construct": "expressed in transfected cells", "test": "Primary radioligand binding screen", "conditions": "primary binding, D4; dezocine 10 μM", "description": "as §1"}, "5-HT7": {"biological_target": "T15, 5-HT7 (Homo sapiens, UniProt P34969)", "T15 construct": "expressed in transfected cells", "test": "Primary radioligand binding screen", "conditions": "primary binding, 5-HT7; dezocine 10 μM", "description": "as §1"}, "5-hT5A": {"biological_target": "T16, 5-hT5A (Homo sapiens, UniProt P47898)", "T16 construct": "expressed in transfected cells", "test": "Primary radioligand binding screen", "conditions": "primary binding, 5-hT5A; dezocine 10 μM", "description": "as §1"}, "D1": {"biological_target": "T17, D1 (Homo sapiens, UniProt P21728)", "T17 construct": "expressed in transfected cells", "test": "Primary radioligand binding screen", "conditions": "primary binding, D1; dezocine 10 μM", "description": "as §1"}, "5-HT1B": {"biological_target": "T18, 5-HT1B (Homo sapiens, UniProt P28222)", "T18 construct": "expressed in transfected cells", "T18 sequence (P28222 whole entry)": "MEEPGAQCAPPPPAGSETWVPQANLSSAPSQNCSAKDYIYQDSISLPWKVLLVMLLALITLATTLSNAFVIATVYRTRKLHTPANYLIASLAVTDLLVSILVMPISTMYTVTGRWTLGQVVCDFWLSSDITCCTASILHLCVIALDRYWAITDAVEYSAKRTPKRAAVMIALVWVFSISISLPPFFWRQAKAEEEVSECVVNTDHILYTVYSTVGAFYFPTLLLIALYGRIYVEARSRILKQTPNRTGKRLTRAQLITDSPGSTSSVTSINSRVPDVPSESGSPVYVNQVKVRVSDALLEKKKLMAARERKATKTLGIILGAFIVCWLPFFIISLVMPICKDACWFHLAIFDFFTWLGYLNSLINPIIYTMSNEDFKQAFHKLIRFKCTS", "test": "Primary radioligand binding screen", "conditions": "primary binding, 5-HT1B; dezocine 10 μM", "description": "as §1"}, "M5": {"biological_target": "T19, M5 (Homo sapiens, UniProt P08912)", "T19 construct": "expressed in transfected cells", "T19 sequence (P08912 whole entry)": "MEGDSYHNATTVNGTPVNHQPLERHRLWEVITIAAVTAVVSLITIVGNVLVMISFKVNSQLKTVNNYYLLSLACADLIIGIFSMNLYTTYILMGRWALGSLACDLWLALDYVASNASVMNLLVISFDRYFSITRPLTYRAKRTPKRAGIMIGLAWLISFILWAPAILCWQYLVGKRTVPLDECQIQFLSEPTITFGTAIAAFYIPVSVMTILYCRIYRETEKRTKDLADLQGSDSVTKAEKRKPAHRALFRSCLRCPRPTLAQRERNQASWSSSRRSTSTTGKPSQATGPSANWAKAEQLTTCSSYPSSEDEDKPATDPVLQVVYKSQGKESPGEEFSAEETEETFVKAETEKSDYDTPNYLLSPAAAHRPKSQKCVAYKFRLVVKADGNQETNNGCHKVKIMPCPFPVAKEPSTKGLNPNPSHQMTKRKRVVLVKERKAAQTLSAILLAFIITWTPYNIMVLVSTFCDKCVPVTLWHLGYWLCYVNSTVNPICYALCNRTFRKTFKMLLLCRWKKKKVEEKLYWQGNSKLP", "test": "Primary radioligand binding screen", "conditions": "primary binding, M5; dezocine 10 μM", "description": "as §1"}, "Beta2": {"biological_target": "T20, Beta2 (Homo sapiens, UniProt P07550)", "T20 construct": "expressed in transfected cells", "T20 sequence (P07550 whole entry)": "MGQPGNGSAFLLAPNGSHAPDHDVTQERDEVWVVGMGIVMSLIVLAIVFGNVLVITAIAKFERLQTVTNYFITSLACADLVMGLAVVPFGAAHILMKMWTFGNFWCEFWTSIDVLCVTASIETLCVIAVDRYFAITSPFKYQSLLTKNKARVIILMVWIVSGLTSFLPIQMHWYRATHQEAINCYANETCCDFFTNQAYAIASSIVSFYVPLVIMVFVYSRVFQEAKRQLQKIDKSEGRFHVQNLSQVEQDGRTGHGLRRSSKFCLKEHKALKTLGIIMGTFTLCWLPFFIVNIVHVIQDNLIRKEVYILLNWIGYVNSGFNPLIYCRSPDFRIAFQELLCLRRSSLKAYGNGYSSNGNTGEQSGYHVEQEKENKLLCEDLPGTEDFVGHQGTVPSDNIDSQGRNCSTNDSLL", "test": "Primary radioligand binding screen", "conditions": "primary binding, Beta2; dezocine 10 μM", "description": "as §1"}, "5-HT1E": {"biological_target": "T21, 5-HT1E (Homo sapiens, UniProt P28566)", "T21 construct": "expressed in transfected cells", "test": "Primary radioligand binding screen", "conditions": "primary binding, 5-HT1E; dezocine 10 μM", "description": "as §1"}, "D2": {"biological_target": "T22, D2 (Homo sapiens, UniProt P14416)", "T22 construct": "expressed in transfected cells", "test": "Primary radioligand binding screen", "conditions": "primary binding, D2; dezocine 10 μM", "description": "as §1"}, "5-HT1A": {"biological_target": "T23, 5-HT1A (Homo sapiens, UniProt P08908)", "T23 construct": "expressed in transfected cells", "test": "Primary radioligand binding screen", "conditions": "primary binding, 5-HT1A; dezocine 10 μM", "description": "as §1"}, "Beta3": {"biological_target": "T24, Beta3 (Homo sapiens, UniProt P13945)", "T24 construct": "expressed in transfected cells", "test": "Primary radioligand binding screen", "conditions": "primary binding, Beta3; dezocine 10 μM", "description": "as §1"}, "5-HT6": {"biological_target": "T25, 5-HT6 (Homo sapiens, UniProt P50406)", "T25 construct": "expressed in transfected cells", "test": "Primary radioligand binding screen", "conditions": "primary binding, 5-HT6; dezocine 10 μM", "description": "as §1"}, "H3": {"biological_target": "T26, H3 (Homo sapiens, UniProt Q9Y5N1)", "T26 construct": "expressed in transfected cells", "test": "Primary radioligand binding screen", "conditions": "primary binding, H3; dezocine 10 μM", "description": "as §1"}, "human cloned SERT": {"biological_target": "T27, human cloned SERT (Homo sapiens, UniProt P31645)", "T27 construct": "expressed in transfected cells", "T27 sequence (P31645 whole entry)": "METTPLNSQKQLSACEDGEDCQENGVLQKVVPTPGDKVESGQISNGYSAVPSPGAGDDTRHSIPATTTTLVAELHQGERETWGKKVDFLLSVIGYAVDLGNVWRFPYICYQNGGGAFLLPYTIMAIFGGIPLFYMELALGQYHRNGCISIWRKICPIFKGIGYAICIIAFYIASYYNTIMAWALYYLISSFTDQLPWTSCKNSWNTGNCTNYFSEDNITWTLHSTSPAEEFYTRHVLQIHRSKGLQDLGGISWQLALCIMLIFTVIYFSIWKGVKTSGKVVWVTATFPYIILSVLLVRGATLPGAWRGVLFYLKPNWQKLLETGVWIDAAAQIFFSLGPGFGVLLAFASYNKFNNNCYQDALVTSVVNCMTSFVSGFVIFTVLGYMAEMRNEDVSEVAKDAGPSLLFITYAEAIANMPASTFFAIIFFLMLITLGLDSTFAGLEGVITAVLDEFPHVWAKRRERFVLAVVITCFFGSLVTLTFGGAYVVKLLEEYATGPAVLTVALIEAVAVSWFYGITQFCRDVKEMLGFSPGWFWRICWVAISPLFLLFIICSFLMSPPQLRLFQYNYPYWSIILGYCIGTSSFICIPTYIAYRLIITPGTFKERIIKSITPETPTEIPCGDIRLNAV", "test": "Serotonin reuptake assay in HEK 293 cells", "type": "cell-based", "conditions": "mean±SE", "description": "In brief, Human Embryonic Kidney 293 cells were plated in Poly-L-Lys (PLL) coated 384-well black clear bottom cell culture plates in DMEM+1% dFBS, at a density of 15,000 cells per well in a total volume of 40 μl. The cells were incubated for a minimum of 6 hours before use in the assays. The medium was removed and 20 μL of assay buffer (20 mM HEPES, 1×HBSS, pH 7.40) was added, followed by 5 μL of 5× drug solutions. The plate was incubated at 37° C. for 30 min. After the incubation, 25 μL of dye solution was added and fluorescence intensity was measured after […] at 37° C., using FlexStation II (bottom read mode, Excitation at 440 nm, Emission at 520 nm with 510 nm cut-off) from the Molecular Devices. […] The half maximal inhibitory concentration were determined and expressed as pIC50 (pIC50=−log (IC50))."}, "kappa opioid receptor": {"biological_target": "kappa opioid receptor (Homo sapiens, UniProt P41145)", "sequence (P41145 whole entry)": "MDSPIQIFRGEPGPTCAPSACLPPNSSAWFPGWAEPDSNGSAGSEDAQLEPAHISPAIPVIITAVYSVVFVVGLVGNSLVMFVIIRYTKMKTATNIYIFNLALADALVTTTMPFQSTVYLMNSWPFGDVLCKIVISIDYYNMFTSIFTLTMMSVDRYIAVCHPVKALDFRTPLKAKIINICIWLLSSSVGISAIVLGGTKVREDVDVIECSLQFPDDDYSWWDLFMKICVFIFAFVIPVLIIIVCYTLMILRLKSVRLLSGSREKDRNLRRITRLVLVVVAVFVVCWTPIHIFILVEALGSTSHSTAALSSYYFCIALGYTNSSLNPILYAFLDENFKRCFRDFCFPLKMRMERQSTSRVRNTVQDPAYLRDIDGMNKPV", "type": "biochemical", "design": "purchased Millipore (Billerica, Mass.); host or cells: Chem-5 mammalian cell line", "from_the_text": "Membrane preparations of recombinant human kappa opioid receptor expressed in the mammalian cell line Chem-5 were obtained from Millipore (Billerica, Mass.). The effects of specific kappa opioid receptor ligands on the activation of the recombinant receptor were investigated by measuring G protein activation in vitro.\nThe assay reports the initial rates of activation of heterotrimeric G proteins (Gαii1β1γ2) on an agonist-bound receptor by measuring the accumulation of [^35S]-GTPγS (non-hydrolyzable analog of GTP) bound to the activated Gαi1 subunit. […] The G protein activation assay was conducted as follows (final concentrations in 50 μL reaction mixture are given in parentheses): the membrane sample was diluted into ice-cold 10 mM 3-(N-morpholino)propanesulfonic acid (MOPS) buffer to reach a protein concentration of 40 ng/μL. 10 μL of the diluted dispersion were dispensed into pre-siliconized glass tubes and mixed with the ligand in MOPS buffer containing 0.1% (w/v) BSA. Upon addition of a mixture of Gαi1 (100 nM) and Gβ1γ2 (500 nM), the tubes were incubated on ice for 30 minutes. The reaction was started by addition of MOPS buffer pH=7.5 (50 mM), EDTA (1 mM), MgCl2 (3 mM), GDP (4 μM), BSA (0.3% w/v), NaCl (100 mM), DTT (1 mM), and [^35S]-GTPγS (5 nM, 1250 Ci/mmol) followed by rapid transfer of the tubes to a water bath at 30° C. The incubation continued for 45 minutes. The reaction was terminated by addition of 2 mL of ice-cold stop solution, TNMg (20 mM Tris-HCl pH=8.0, 100 mM NaCl, and 25 mM MgCl2). The reaction mixture was rapidly filtered through nitrocellulose filters (Millipore). Filters were washed four times with 2 mL each of cold TNMg buffer, dried, placed in scintillation vials filled with ScintiSafe Econo F scintillation liquid (Fisher, Waltham, Mass.), and the radioactivity counted. Duplicate samples corresponding to every ligand concentration point were counted."}}, "note": "Entries after “also recorded” stand apart in the source; their conditions may differ."}
{"smiles": "CN1CC[C@]23c4c5ccc(O)c4O[C@H]2[C@@H](O)C=C[C@H]3[C@H]1C5", "note": "[Morphine]", "values": [{"measurement": "interaction (binding activity) with NET", "setting": "[1]", "value": "No significant binding activity"}]}
{"smiles": "C=CCN1CC[C@]23c4c5ccc(O)c4O[C@H]2C(=O)CC[C@@]3(O)[C@H]1C5", "note": "[Naloxone]", "values": [{"measurement": "interaction (binding activity) with NET", "setting": "[1]", "value": "No significant binding activity"}, {"measurement": "% inhibition", "setting": "Sigma 1", "value": 9.6, "unit": "%"}, {"measurement": "% inhibition", "setting": "5-HT1D", "value": "−1.6", "unit": "%"}, {"measurement": "% inhibition", "setting": "5-HT2B", "value": 49.6, "unit": "%"}, {"measurement": "% inhibition", "setting": "Alpha2A", "value": 12.9, "unit": "%"}, {"measurement": "% inhibition", "setting": "5-HT3", "value": 0, "unit": "%"}, {"measurement": "% inhibition", "setting": "NET", "value": 43.8, "unit": "%"}, {"measurement": "% inhibition", "setting": "Alpha1B", "value": "−2", "unit": "%"}, {"measurement": "% inhibition", "setting": "Alpha1A", "value": 4, "unit": "%"}, {"measurement": "% inhibition", "setting": "Alpha2C", "value": 22.7, "unit": "%"}, {"measurement": "% inhibition", "setting": "D3", "value": 1.9, "unit": "%"}, {"measurement": "% inhibition", "setting": "5-HT2C", "value": 21.1, "unit": "%"}, {"measurement": "% inhibition", "setting": "H2", "value": 57.4, "unit": "%"}, {"measurement": "% inhibition", "setting": "D5", "value": 2.1, "unit": "%"}, {"measurement": "% inhibition", "setting": "D4", "value": "−5.8", "unit": "%"}, {"measurement": "% inhibition", "setting": "5-HT7", "value": 60.3, "unit": "%"}, {"measurement": "% inhibition", "setting": "5-hT5A", "value": 28.9, "unit": "%"}, {"measurement": "% inhibition", "setting": "D1", "value": 5.5, "unit": "%"}, {"measurement": "% inhibition", "setting": "5-HT1B", "value": "−1", "unit": "%"}, {"measurement": "% inhibition", "setting": "M5", "value": 32.1, "unit": "%"}, {"measurement": "% inhibition", "setting": "Beta2", "value": "−2.6", "unit": "%"}, {"measurement": "% inhibition", "setting": "5-HT1E", "value": "−5.7", "unit": "%"}, {"measurement": "% inhibition", "setting": "D2", "value": "−0.8", "unit": "%"}, {"measurement": "% inhibition", "setting": "5-HT1A", "value": 5.8, "unit": "%"}, {"measurement": "% inhibition", "setting": "Beta3", "value": "−3.1", "unit": "%"}, {"measurement": "% inhibition", "setting": "5-HT6", "value": 27.6, "unit": "%"}, {"measurement": "% inhibition", "setting": "H3", "value": 8.9, "unit": "%"}]}
{"smiles": "CNCCC(Oc1ccccc1OC)c1ccccc1", "note": "(stereo not drawn) [nisoxetine]", "values": [{"measurement": "pIC50 of SERT (serotonin reuptake)", "setting": "human cloned SERT", "value": "5.99±0.07"}]}
{"smiles": "Oc1ccc2c3c1O[C@H]1c4[nH]c5c(c4C[C@@]4(O)[C@@H](C2)N(CC2CC2)CC[C@]314)C[C@@]1(O)[C@H]2Cc3ccc(O)c4c3[C@@]1(CCN2CC1CC1)[C@H]5O4", "note": "[nor-binaltorphimine]", "values": [{"measurement": "G protein activation in the presence of kappa receptor", "setting": "kappa opioid receptor", "value": "inverse kappa agonist; also recorded: did not induce G protein activation"}]}
